These are literature values, as cited in patent publication US10264790B2, “Use of certain herbicide combinations based on iodosulfuron in teff plants” (BAYER CROPSCIENCE AKTIENGESELLSCHAFT, priority 2016, dated 2019).

Data set [1] concerns teff (Eragrostis tef). Conditions: for injury on teff: in vivo; for yield reductions: field studies Kansas, teff.
Data set [2] has as its system Phalaris paradoxa and Setaria pallidefusca. Particulars: pot experiments; applied pre-emergence (diclofop-methyl only with a safener).
Data set [3] has as its system teff. Particulars: for selectivity in teff: with or without the safener.
Data set [4] relates to teff. Conditions: for levels of weed control, teff safety and teff yields: postemergence applications; for injury to teff: applied postemergence.
The mark [5] stands for this setting: postemergence treatments, field studies Oregon 2009.

Where two headings read alike, the source gives them in different places.

`O=C(O)COc1ccc(Cl)cc1Cl` [2,4-D, (2,4-dichlorophenoxy)acetic acid]: the injury on teff entry in data set [1] is “less than 5%”. For the compound `COC(=O)C(C)Oc1ccc(Oc2ccc(Cl)cc2Cl)cc1` (centres unmarked) [Diclofop-methyl], in data set [2], the “control of Phalaris paradoxa and Setaria pallidefusca” value was “controlled both weeds”. In data set [3] (pot experiments, applied pre-emergence (diclofop-methyl only with a safener)), the “safety / tolerance on teff” value was “tolerated by teff”. On to `CCc1cccc(CC)c1N(COC)C(=O)CCl` [alachlor], for which the selectivity in teff result in data set [3] (pot experiments) is recorded as “failed to show selectivity”.

As for `COc1nc(C)nc(NC(=O)NS(=O)(=O)c2ccccc2Cl)n1` [chlorsulfuron], the “control of Phalaris paradoxa and Setaria pallidefusca” value in data set [2] was “controlled both weed species”. In addition, the “teff injury (in words)” value in data set [4] (in vivo) is reported as “little or no teff injury”. In data set [4] (field studies Oregon 2009), the “levels of weed control, teff safety and teff yields” value is “highest levels”. For the same compound, the “safety / tolerance on teff” value in data set [3] (in vivo) is given as “safe on teff”. `O=C(O)c1nc(Cl)ccc1Cl` [clopyralid]: the “teff injury (in words)” value in data set [4] (setting [5]) is reported as “little or no teff injury”.

As to `COc1nn(C(=O)NS(=O)(=O)c2ccccc2OC(F)(F)F)c(=O)n1C` [flucarbazone], the “teff injury (in words)” value in data set [4] (setting [5]) is given as “little or no teff injury”. For `Nc1c(Cl)c(F)nc(OCC(=O)O)c1Cl` [fluroxypyr], the “teff injury (in words)” value in data set [4] (in vivo) is given as “little or no teff injury”. `COc1cc(OC)nc(NC(=O)NS(=O)(=O)c2c(C(=O)O)c(Cl)nn2C)n1` [halosulfuron]: the injury on teff result in data set [1] is recorded as “less than 5%”.

Regarding `COc1cc(OC)nc(NC(=O)NS(=O)(=O)c2cc(C(=O)O)ccc2CNS(C)(=O)=O)n1` [mesosulfuron, 2-[(4,6-dimethoxypyrimidin-2-ylcarbamoyl)sulfamoyl]-α-methanesulfonamido-p-toluic acid], the injury to teff in data set [4] (field studies Oregon 2009) is recorded as 10%.

For the compound `CS(=O)(=O)c1ccc(C(=O)C2C(=O)CCCC2=O)c([N+](=O)[O-])c1` [mesotrione], in data set [1], the yield reductions was 30%. Besides, in data set [4] (field studies Oregon 2009), the injury to teff is given as 63%. Further, the “injury to the teff” value in data set [4] (applied preemergence, field studies Oregon 2009) is 100%.

With `COc1ccc(NC(=O)N(C)C)cc1Cl` [metoxuron], the selectivity in teff result in data set [3] (pot experiments) is “failed to show selectivity”. Regarding `COc1nc(C)nc(=NC(=O)NS(=O)(=O)c2ccccc2C(=O)O)[nH]1` [metsulfuron], in data set [4] (field studies Oregon 2009), the “levels of weed control, teff safety and teff yields” value is listed as “highest levels”. The “teff injury (in words)” value in data set [4] (setting [5]) is on record as “little or no teff injury”.

As for `COc1cc(OC)nc(NC(=O)NS(=O)(=O)c2ncccc2C(=O)N(C)C)n1` [nicosulfuron], the injury to teff in data set [4] (field studies Oregon 2009) is given as 20%. In the case of `CCC(CC)Nc1c([N+](=O)[O-])cc(C)c(C)c1[N+](=O)[O-]` [pendimethalin], the selectivity in teff entry in data set [3] (pot experiments) is reported as “failed to show selectivity”. In the case of `CCc1cc(C)cc(CC)c1-c1c(OC(=O)C(C)(C)C)n2n(c1=O)CCOCC2` [pinoxaden], the injury to teff in data set [4] (field studies Oregon 2009) is 70%. `COc1nc(C)nc(NC(=O)NS(=O)(=O)c2ccccc2CCC(F)(F)F)n1` [prosulfuron]: the injury on teff entry in data set [1] is listed as “less than 5%”.

Regarding `Cn1nc(-c2cc(OCC(=O)O)c(Cl)cc2F)c(Cl)c1OC(F)F` [pyraflufen], the “teff injury (in words)” value in data set [4] (setting [5]) was “little or no teff injury”. As for `CCC/C(=N\OCC)C1=C(O)CC(CC(C)SCC)CC1=O` (centres unmarked) [sethoxydim], the yield reductions in data set [1] is listed as 50%. On to `COc1nc(C)nc(N(C)C(=O)NS(=O)(=O)c2ccccc2C(=O)O)n1` [tribenuron], for which the “teff injury (in words)” value in data set [4] (setting [5]) is “little or no teff injury”.
